Legend:
[1] = test system: JAK1 (IL-13-stimulated STAT6 phosphorylation in BEAS-2B cells); assay: P-STAT6 BEAS-2B+IL-13 cell assay; format: cell-based, human; settings: Homo sapiens, BEAS-2B, 1 h, 1 hour compound, IL-13 15 minutes, IC50 by four-parameter fit, read-out: Cellular JAK1 PSTAT6 BEAS2B + IL13
How it was run: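 BEAS-2B human bronchial epithelial cells preincubated 1 h at 37 °C with compound, then stimulated with human recombinant IL-13 for 15 min. Phospho-STAT6 (Tyr641) in lysates measured by MSD electrochemiluminescence immunoassay; IC50 from a four-parameter logistic fit of percent of control.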

[2] = biological target: T1, recombinant human JAK1 kinase domain protein (Residues 854-1154) (Homo sapiens, UniProt P23458); assay: JAK1 biochemical assay (microfluidic mobility shift, peptide phosphorylation); settings: 25 μM ATP, 1 nM total JAK1; Ki calculated from Ki app (tight-binding, competitive); read-out: Biochem JAK1 Ki
T1 construct: human JAK1 kinase domain protein (Residues 854-1154); purchased Proteros Biostructures GmbH (Martinsried, Germany); host or cells: insect cells
How it was run: (§1)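 Insect-cell-expressed human JAK1 (1 nM, residues 854-1154) or JAK2 (0.2 nM, residues 812-1132) phosphorylating 1.5 μM 5-FAM peptide Y-1B with 25 μM ATP, pH 7.2 HEPES, 30 min at 22-23 °C; twelve concentrations up to 1000 nM in duplicate. Mobility-shift % conversion fitted to tight-binding quadratic for Ki^app.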

[3] = biological target: T2, Recombinant human JAK2 kinase domain protein (Residues 812-1132) (Homo sapiens, UniProt O60674); assay: JAK2 biochemical assay (microfluidic mobility shift, peptide phosphorylation); settings: 25 μM ATP, 0.2 nM total JAK2; Ki calculated from Ki app (tight-binding, competitive); read-out: Biochem JAK2 Ki
T2 construct: human JAK2 kinase domain protein (Residues 812-1132); made in house; host or cells: insect cells
How it was run: as §1

T2 sequence (O60674 812-1132): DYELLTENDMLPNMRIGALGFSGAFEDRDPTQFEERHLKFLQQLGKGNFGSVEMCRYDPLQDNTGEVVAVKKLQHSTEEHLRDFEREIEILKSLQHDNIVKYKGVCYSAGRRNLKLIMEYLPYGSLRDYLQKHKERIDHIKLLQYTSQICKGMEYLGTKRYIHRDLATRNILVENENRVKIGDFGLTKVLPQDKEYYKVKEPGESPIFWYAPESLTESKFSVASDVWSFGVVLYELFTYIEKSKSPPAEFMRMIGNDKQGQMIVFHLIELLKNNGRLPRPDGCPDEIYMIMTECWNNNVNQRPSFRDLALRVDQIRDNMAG
T1 sequence (P23458 854-1154): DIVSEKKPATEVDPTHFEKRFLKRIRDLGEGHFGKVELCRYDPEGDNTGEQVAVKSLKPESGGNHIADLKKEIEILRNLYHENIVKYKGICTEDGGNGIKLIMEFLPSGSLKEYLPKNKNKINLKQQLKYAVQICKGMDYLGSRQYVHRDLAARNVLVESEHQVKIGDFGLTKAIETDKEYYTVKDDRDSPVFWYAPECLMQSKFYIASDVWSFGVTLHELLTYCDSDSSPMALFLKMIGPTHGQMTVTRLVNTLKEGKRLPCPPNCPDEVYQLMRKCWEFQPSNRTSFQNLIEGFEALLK

Compound	Ki [2]	Ki [3]	IC50 [1]
CN(C)CCn1nnc(Cn2cc(NC(=O)c3cnn4cccnc34)c(-c3cc4c(cc3OC(F)F)NCCO4)n2)n1 [Example 43, N-[3-[6-(difluoromethoxy)-3,4-dihydro-2H-1,4-benzoxazin-7-yl]-1[[2-[2-(dimethylamino)ethyl]tetrazol-5-yl]methyl]pyrazol-4-yl]pyrazolo[1,5-a]pyrimidine-3-carboxamide]	0.86 nM	0.34 nM	36 nM
CN(C)CCn1nnnc1Cn1cc(NC(=O)c2cnn3cccnc23)c(-c2cc3c(cc2OC(F)F)NCCO3)n1 [Example 44, N-[3-[6-(difluoromethoxy)-3,4-dihydro-2H-1,4-benzoxazin-7-yl]-1-[[1-[2-(dimethylamino)ethyl]tetrazol-5-yl]methyl]pyrazol-4-yl]pyrazolo[1,5-a]pyrimidine-3-carboxamide]	0.71 nM	0.47 nM	25 nM
CN1CC(N(C)CCn2nnnc2Cn2cc(NC(=O)c3cnn4cccnc34)c(-c3cc(OC(F)F)ccc3OC(F)F)n2)C1 [Example 45, N-[3-[2,5-bis(difluoromethoxy)phenyl]-1-[[1-[2-[methyl-(1-methylazetidin-3-yl)amino]ethyl]tetrazol-5-yl]methyl]pyrazol-4-yl]pyrazolo[1,5-a]pyrimidine-3-carboxamide]	0.81 nM	0.65 nM	81 nM
CN1CC(N(C)CCn2nnc(Cn3cc(NC(=O)c4cnn5cccnc45)c(-c4cc(OC(F)F)ccc4OC(F)F)n3)n2)C1 [Example 48, N-[3-[2,5-bis(difluoromethoxy)phenyl]-1-[[2-[2-[methyl-(1-methylazetidin-3-yl)amino]ethyl]tetrazol-5-yl]methyl]pyrazol-4-yl]pyrazolo[1,5-a]pyrimidine-3-carboxamide]	0.63 nM	0.54 nM	15 nM

The next compounds have a lower Ki [2] than those just listed; values first:

Ki [2]	Ki [3]	Compound	IC50 [1]
0.33 nM	0.22 nM	CN1CCN(CCn2nnnc2Cn2cc(NC(=O)c3cnn4cccnc34)c(-c3cc(Cl)ccc3OC(F)F)n2)CC1 [Example 42, N-[3-[5-chloro-2-(difluoromethoxy)phenyl]-1-[[1-[2-(4-methylpiperazin-1-yl)ethyl]tetrazol-5-yl]methyl]pyrazol-4-yl]pyrazolo[1,5-a]pyrimidine-3-carboxamide]	16 nM
0.46 nM	0.32 nM	CSc1ccc(OC(F)F)c(-c2nn(Cc3nnn(C4CN(CCN(C)C)C4)n3)cc2NC(=O)c2cnn3cccnc23)c1 [Example 47, N-[3-[2-(difluoromethoxy)-5-methylsulfanyl-phenyl]-1-[[2-[1-[2-(dimethylamino)ethyl]azetidin-3-yl]tetrazol-5-yl]methyl]pyrazol-4-yl]pyrazolo[1,5-a]pyrimidine-3-carboxamide]	16 nM
0.5 nM	0.44 nM	CN(C)CCN1CC(n2nnc(Cn3cc(NC(=O)c4cnn5cccnc45)c(-c4cc(C5CC5)ccc4OC(F)F)n3)n2)C1 [Example 50, N-[3-[5-cyclopropyl-2-(difluoromethoxy)phenyl]-1-[[2-[1-[2-(dimethylamino)ethyl]azetidin-3-yl]tetrazol-5-yl]methyl]pyrazol-4-yl]pyrazolo[1,5-a]pyrimidine-3-carboxamide]	16 nM
0.37 nM	0.37 nM	CN(C)CCCN1CC(n2nnc(Cn3cc(NC(=O)c4cnn5cccnc45)c(-c4cc(OC(F)F)ccc4OC(F)F)n3)n2)C1 [Example 51, N-[3-[2,5-bis(difluoromethoxy)phenyl]-1-[[2-[1-[3-(dimethylamino)propyl]azetidin-3-yl]tetrazol-5-yl]methyl]pyrazol-4-yl]pyrazolo[1,5-a]pyrimidine-3-carboxamide]	12 nM
0.6 nM	0.58 nM	CN(C)CCCCN1CC(n2nnc(Cn3cc(NC(=O)c4cnn5cccnc45)c(-c4cc(OC(F)F)ccc4OC(F)F)n3)n2)C1 [Example 55, N-[3-[2,5-bis(difluoromethoxy)phenyl]-1-[[2-[1-[4-(dimethylamino)butyl]azetidin-3-yl]tetrazol-5-yl]methyl]pyrazol-4-yl]pyrazolo[1,5-a]pyrimidine-3-carboxamide]	44 nM

From patent publication US12247032B2, “Substituted pyrazolo[1,5-a]pyrimidines as inhibitors of JAK kinases” (Genentech, Inc., priority 2019, dated 2025)
